Tests used:
[1] = tested on: c-fos; details: rat; cited from earlier work
[2] = tested on: laminin, CAM-L1, pCREB; details: chronic administration, unstressed rats; cited from earlier work
[3] = biological target: CYP2C9 (Homo sapiens, UniProt P11712); details: cited from earlier work
[4] = tested on: BCLXL expression; details: rat depression model, chronic administration; cited from earlier work
[5] = tested on: PLC-β1 knockout mice; details: cited from earlier work
[6] = tested on: c-fos; details: unstressed rats; cited from earlier work
[7] = tested on: mice; details: intracerebroventricular injection; cited from earlier work
[8] = tested on: 26S proteasome; details: cited from earlier work
[9] = tested on: patients with MDD; test: Five Phase II studies of vilazodone, eight weeks of treatment; format: in vivo, human; details: active comparator in three Phase II studies
Source text: As part of the vilazodone development program, five Phase II studies have been conducted, all in patients with MDD. These studies randomized 2,098 patients for eight weeks of treatment, 1196 of whom received vilazodone.

[10] = biological target: T1, CYP1A2 (Homo sapiens, UniProt P05177); details: cited from earlier work
T1 sequence (P05177 1-516): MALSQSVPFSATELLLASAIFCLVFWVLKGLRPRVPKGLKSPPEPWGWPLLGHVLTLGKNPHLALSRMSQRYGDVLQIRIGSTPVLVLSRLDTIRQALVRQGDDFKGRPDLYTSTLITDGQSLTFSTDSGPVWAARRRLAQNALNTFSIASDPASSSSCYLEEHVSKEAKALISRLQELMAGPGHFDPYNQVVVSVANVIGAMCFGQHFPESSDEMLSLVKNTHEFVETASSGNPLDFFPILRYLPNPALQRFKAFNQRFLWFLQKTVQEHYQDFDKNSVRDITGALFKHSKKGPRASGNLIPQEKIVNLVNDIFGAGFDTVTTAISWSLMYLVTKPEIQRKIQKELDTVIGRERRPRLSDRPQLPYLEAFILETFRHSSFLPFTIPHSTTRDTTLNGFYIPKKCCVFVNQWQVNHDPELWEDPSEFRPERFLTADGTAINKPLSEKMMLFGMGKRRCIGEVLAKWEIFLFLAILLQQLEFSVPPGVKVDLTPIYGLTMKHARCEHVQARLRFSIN

[11] = biological target: CYP2C19 (Homo sapiens, UniProt P33261); details: cited from earlier work
Chain of CYP2C19 (P33261 whole entry): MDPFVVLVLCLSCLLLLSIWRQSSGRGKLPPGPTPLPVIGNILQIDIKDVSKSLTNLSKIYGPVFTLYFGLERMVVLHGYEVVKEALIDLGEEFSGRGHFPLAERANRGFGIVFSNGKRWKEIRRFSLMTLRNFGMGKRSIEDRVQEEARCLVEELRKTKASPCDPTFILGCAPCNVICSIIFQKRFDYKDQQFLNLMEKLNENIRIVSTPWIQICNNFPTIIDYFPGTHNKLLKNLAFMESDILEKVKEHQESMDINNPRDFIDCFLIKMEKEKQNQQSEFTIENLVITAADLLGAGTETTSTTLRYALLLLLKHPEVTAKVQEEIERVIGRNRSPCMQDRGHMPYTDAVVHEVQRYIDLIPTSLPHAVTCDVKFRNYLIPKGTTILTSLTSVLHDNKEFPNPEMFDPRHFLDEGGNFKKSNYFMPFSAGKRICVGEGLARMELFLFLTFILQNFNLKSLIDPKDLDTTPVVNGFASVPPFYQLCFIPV

[12] = biological target: CYP3A4 (Homo sapiens, UniProt P08684); details: cited from earlier work
Chain of CYP3A4 (P08684 whole entry): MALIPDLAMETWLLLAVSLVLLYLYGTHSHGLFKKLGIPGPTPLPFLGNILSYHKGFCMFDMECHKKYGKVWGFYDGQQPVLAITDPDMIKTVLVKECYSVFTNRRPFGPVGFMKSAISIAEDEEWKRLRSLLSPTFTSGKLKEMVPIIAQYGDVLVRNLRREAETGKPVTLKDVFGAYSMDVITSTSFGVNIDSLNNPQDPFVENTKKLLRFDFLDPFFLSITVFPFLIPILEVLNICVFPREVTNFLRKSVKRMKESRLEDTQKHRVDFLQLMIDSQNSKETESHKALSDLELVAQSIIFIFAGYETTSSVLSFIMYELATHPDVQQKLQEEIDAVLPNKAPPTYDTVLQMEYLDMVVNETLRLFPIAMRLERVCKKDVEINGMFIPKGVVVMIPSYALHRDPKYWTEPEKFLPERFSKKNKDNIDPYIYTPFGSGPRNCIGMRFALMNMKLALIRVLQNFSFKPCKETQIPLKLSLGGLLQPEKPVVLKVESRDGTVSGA

[13] = tested on: GluR1; details: cited from earlier work
[14] = tested on: MAPK1; details: cultured rat astrocytes; cited from earlier work
[15] = tested on: GluR1, GluR2, and GluR3; details: chronic (30 days) administration; mouse nucleus accumbens and dorsal striatum; cited from earlier work

Chain of CYP2C9 (P11712 whole entry): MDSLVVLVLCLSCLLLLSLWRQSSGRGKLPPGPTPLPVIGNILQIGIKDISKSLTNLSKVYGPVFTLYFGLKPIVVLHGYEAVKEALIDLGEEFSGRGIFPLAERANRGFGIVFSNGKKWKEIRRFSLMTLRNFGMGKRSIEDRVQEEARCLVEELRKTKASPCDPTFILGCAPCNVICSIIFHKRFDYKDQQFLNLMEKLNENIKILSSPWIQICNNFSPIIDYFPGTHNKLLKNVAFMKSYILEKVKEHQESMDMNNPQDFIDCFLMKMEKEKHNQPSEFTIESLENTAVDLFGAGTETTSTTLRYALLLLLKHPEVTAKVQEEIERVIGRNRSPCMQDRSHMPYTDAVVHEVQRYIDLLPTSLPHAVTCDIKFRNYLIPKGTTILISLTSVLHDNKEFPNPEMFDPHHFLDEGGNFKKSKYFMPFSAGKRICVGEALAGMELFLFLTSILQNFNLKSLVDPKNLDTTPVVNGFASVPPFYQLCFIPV

**Q.** For `CNCCCN1c2ccccc2CCc2ccccc21` [desipramine], which “level of c-fos in the PAG brain region” value [1] is on record?
**A.** decreased

**Q.** What about the “laminin and CAM-L1 in hippocampus and frontal cortex” value [2] of the same molecule?
**A.** increased

**Q.** What about the pCREB [2] of the same molecule?
**A.** increased pCREB in the frontal cortex only

**Q.** For `CN[C@H]1CC[C@@H](c2ccc(Cl)c(Cl)c2)c2ccccc21` [Sertraline], which “inhibition of CYP2C9” value [3] is on record?
**A.** partially inhibit

**Q.** With `N[C@@H]1C[C@H]1c1ccccc1` (racemic) [tranylcypromine] as the molecule, how does the “BCLXL expression in the CA1 and DG subfields” value [4] read?
**A.** increased

**Q.** Which schizophrenic-like behaviors [5] does the source give for `O=C(CCCN1CCC(O)(c2ccc(Cl)cc2)CC1)c1ccc(F)cc1` [haloperidol] here?
**A.** rescued

**Q.** For `CCOc1ccccc1OC(c1ccccc1)C1CNCCO1` (stereo not shown) [reboxetine], which “BCLXL expression in the CA1 and DG subfields” value [4] is on record?
**A.** increased

**Q.** And the “c-fos staining in the brain” value [6]?
**A.** decrease

**Q.** Which antidepressant-like effect [7] does the source give for neuropeptide Y [NPY] here?
**A.** dose dependent antidepressant-like effect

**Q.** Which “function of the 26S proteasome” value [8] does the source give for `CCCCC[C@H](O)/C=C/[C@H]1C(=O)C=C[C@@H]1C/C=C\CCCC(=O)O` [prostaglandin J2] here?
**A.** inhibited

**Q.** Which results are given for `CNCCC(Oc1ccc(C(F)(F)F)cc1)c1ccccc1` (stereo not shown) [fluoxetine]?
**A.** Hamilton Depression Scale (HAM-D) total score versus placebo [9]: did not show a statistically significant improvement; inhibition of CYP1A2 [10]: inhibit; inhibition of CYP2C19 [11]: inhibit; inhibition of CYP3A4 [12]: inhibit; c-fos staining in the brain [6]: decrease; phosphorylation of GluR1 [13]: increase; MAPK1 activation [14]: increased

**Q.** For `CNCCCC12CCC(c3ccccc31)c1ccccc12` [maprotiline], which “GluR1, GluR2, and GluR3” value [15] is on record?
**A.** increased

**Q.** With `CN(C)CCCN1c2ccccc2CCc2ccc(Cl)cc21` [clomipramine] as the molecule, how does the “level of c-fos in the PAG brain region” value [1] read?
**A.** decreased
